Source: US12630544B2, “Compound, α-synuclein aggregate binder, and use thereof” (NATIONAL INSTITUTES FOR QUANTUM SCIENCE AND TECHNOLOGY, priority 2020, dated 2026)

Columns and labels:
[1] = target: T1, phosphorylated α-synuclein (Mus musculus, UniProt O55042); experiment: In vitro fluorescence microscope measurement, brain sections of α-synuclein fibril-inoculated mouse; conditions: 30 μM compound, 20% ethanol, 30 minutes; mouse brain section
T1 construct: from tissue; host or cells: brain of C57/BL/6 mouse inoculated in the striatum with recombinant (E. coli) mouse α-synuclein fibrils; sections or living animal
Procedure: First, mouse α-synuclein was expressed in and extracted from E. coli as a recombinant protein, and then incubated in vitro to form insoluble α-synuclein aggregates. The α-synuclein aggregates were then inoculated into the striatum of a mouse. […] Note that the inoculation of the α-synuclein aggregates into the striatum of the mouse was carried out in the following manner. First, hair on the head of a 9-week-old C57/BL/6 male mouse which had been anesthetized with 1.5% (v/v) isoflurane was removed, and the scalp was disinfected with isodine, followed by application of xylocaine and incision in the scalp to expose the skull. […]
The brain of this α-synuclein fibril-inoculated mouse was extracted, and then sections were prepared. The sections were analyzed by fluorescent staining. […] After the section was mounted in a mounting medium (VECTASHIELD H-1000), an image of an α-synuclein aggregate-enriched area on the section was obtained with use of a fluorescence microscope (DM4000 (excitation wavelength: 391 nm to 437 nm)). […] After the section was subjected to immunohistochemical staining with use of an anti-phosphorylated α-synuclein monoclonal antibody (pS129, abcam, ab59264) (1:1000) and then mounted in a mounting medium (VECTASHIELD H-1000), an image of the same area as above was obtained with use of a fluorescence microscope (DM4000 (excitation wavelength: 460 nm to 500 nm)). […]

[2] = target: T2, α-synuclein lesion (Mus musculus, UniProt O55042); experiment: In vivo two-photon laser scanning fluorescence microscopy of α-synuclein fibril-inoculated model mouse; conditions: 50 μl DMSO solution containing 0.1% compound, i.p.
T2 construct: from tissue; host or cells: brain of C57/BL/6 mouse inoculated in the striatum with recombinant (E. coli) mouse α-synuclein fibrils; sections or living animal
Procedure: First, mouse α-synuclein was expressed in and extracted from E. coli as a recombinant protein, and then incubated in vitro to form insoluble α-synuclein aggregates. The α-synuclein aggregates were then inoculated into the striatum of a mouse. […] Note that the inoculation of the α-synuclein aggregates into the striatum of the mouse was carried out in the following manner. First, hair on the head of a 9-week-old C57/BL/6 male mouse which had been anesthetized with 1.5% (v/v) isoflurane was removed, and the scalp was disinfected with isodine, followed by application of xylocaine and incision in the scalp to expose the skull. Then, a hole was drilled in the skull at a position of 0.05 mm posterior to the bregma and 2 mm lateral to the midline, and 3 μl of an α-synuclein fibril solution (mouse α-synuclein fibril (4 mg/ml) in saline) was injected into a position […] ventral to the brain surface with use of a glass pipette. The scalp was then returned and sutured.
A model mouse was anesthetized with 1.5% (v/v) isoflurane 6 or more weeks after inoculation of an α-synuclein fibril solution. Then, a cranial window was placed on the model mouse in accordance with the Seylaz-Tomita method (Tomita et al. J Cereb Blood Flow Metab 25, 858-67, 2005). Two or more weeks after the placement of the cranial window, the mouse was anesthetized with 1.5% (v/v) isoflurane, and then 50 μl of a DMSO solution containing 0.1% BF-227, PBB3, SPAL-T-05, or SPAL-T-06 was intraperitoneally administered to the mouse. Thirty minutes after the administration, the mouse was fixed under a two-photon laser fluorescence microscope, 100 μl of physiological saline containing 5 mM Sulforhodamine 101 was intraperitoneally administered to the mouse, and then intravital two-photon fluorescence imaging was carried out at an excitation wavelength of 900 nm. Detection wavelengths for BF-227, PBB3, SPAL-T-05, and SPAL-T-06 were set at 500 nm to 550 nm, and a detection wavelength for Sulforhodamine 101 was set at 573 nm to 648 nm. In FIG. 4, each arrowhead indicates a blood vessel, and each arrow indicates fluorescence from the compound binding to an α-synuclein lesion.

[3] = target: T3, α-synuclein lesions (Homo sapiens, UniProt P37840); experiment: In vitro fluorescence microscope measurement of the sections subjected to autoradiography (DLB, MSA); conditions: 30 μM, 50% ethanol, 30 minutes
T3 construct: α-synuclein aggregates formed in the brain of the DLB patient; from tissue; host or cells: post-mortem human brain: amygdala of DLB patient (sections or homogenate); cerebellum of MSA patient
Procedure: The section that had been subjected to the autoradiography was analyzed by fluorescent staining. Specifically, the section and 30 μM SPAL-T-06 were incubated in a 50% ethanol solution at room temperature for 30 minutes. Thereafter, the section was washed with a 50% ethanol solution for 5 minutes and with ultrapure water for 3 minutes. This washing was carried out twice. After the section was mounted in a mounting medium (VECTASHIELD H-1000), an image of an α-synuclein aggregate-enriched area on the section was obtained with use of a fluorescence microscope (DM4000 (excitation wavelength: 391 nm to 437 nm)). An adjacent brain section was also washed with a phosphate buffer solution, and then treated in an autoclave for antigen retrieval. After the section was subjected to immunohistochemical staining with an anti-phosphorylated α-synuclein monoclonal antibody (pS129, abcam, ab59264) (1:1000) and then mounted in a mounting medium (VECTASHIELD H-1000), images were obtained with use of fluorescence microscopes (BZ-X710, KEYENCE (excitation wavelength: 450 nm to 490 nm) and DM4000 (excitation wavelength: 460 nm to 500 nm)).

CNc1cnc(C#C/C=C/c2nc3ccc(OCC(O)CF)cc3s2)cn1 (stereo not shown) [SPAL-T-06, (E)-1-fluoro-3-((2-(4-(5-(methylamino)pyrazin-2-yl)but-1-en-3-yn-1-yl)benzo[d]thiazol-6-yl)oxy)propan-2-ol]
binding to lesion caused by phosphorylated α-synuclein (fluorescent staining, co-stained with pS129 antibody) [1]: bound to a lesion caused by phosphorylated α-synuclein | detection of / binding to α-synuclein lesions in living mouse brain (two-photon fluorescence) ([2]; excitation 900 nm): bound to α-synuclein lesions | delivery into the brain after intraperitoneal administration ([2]; imaging 30 minutes after administration): delivered into the brain and further into neurons of the living body | binding to α-synuclein lesions in DLB and MSA brain sections (fluorescent staining) [3]: bound to α-synuclein lesions
